Results taken from patent US20190275027A1 (priority 2018, published 2019).

Target: L-type channel CaV1.2 (UniProt P15381)
Sequence (P15381 whole entry, looked up): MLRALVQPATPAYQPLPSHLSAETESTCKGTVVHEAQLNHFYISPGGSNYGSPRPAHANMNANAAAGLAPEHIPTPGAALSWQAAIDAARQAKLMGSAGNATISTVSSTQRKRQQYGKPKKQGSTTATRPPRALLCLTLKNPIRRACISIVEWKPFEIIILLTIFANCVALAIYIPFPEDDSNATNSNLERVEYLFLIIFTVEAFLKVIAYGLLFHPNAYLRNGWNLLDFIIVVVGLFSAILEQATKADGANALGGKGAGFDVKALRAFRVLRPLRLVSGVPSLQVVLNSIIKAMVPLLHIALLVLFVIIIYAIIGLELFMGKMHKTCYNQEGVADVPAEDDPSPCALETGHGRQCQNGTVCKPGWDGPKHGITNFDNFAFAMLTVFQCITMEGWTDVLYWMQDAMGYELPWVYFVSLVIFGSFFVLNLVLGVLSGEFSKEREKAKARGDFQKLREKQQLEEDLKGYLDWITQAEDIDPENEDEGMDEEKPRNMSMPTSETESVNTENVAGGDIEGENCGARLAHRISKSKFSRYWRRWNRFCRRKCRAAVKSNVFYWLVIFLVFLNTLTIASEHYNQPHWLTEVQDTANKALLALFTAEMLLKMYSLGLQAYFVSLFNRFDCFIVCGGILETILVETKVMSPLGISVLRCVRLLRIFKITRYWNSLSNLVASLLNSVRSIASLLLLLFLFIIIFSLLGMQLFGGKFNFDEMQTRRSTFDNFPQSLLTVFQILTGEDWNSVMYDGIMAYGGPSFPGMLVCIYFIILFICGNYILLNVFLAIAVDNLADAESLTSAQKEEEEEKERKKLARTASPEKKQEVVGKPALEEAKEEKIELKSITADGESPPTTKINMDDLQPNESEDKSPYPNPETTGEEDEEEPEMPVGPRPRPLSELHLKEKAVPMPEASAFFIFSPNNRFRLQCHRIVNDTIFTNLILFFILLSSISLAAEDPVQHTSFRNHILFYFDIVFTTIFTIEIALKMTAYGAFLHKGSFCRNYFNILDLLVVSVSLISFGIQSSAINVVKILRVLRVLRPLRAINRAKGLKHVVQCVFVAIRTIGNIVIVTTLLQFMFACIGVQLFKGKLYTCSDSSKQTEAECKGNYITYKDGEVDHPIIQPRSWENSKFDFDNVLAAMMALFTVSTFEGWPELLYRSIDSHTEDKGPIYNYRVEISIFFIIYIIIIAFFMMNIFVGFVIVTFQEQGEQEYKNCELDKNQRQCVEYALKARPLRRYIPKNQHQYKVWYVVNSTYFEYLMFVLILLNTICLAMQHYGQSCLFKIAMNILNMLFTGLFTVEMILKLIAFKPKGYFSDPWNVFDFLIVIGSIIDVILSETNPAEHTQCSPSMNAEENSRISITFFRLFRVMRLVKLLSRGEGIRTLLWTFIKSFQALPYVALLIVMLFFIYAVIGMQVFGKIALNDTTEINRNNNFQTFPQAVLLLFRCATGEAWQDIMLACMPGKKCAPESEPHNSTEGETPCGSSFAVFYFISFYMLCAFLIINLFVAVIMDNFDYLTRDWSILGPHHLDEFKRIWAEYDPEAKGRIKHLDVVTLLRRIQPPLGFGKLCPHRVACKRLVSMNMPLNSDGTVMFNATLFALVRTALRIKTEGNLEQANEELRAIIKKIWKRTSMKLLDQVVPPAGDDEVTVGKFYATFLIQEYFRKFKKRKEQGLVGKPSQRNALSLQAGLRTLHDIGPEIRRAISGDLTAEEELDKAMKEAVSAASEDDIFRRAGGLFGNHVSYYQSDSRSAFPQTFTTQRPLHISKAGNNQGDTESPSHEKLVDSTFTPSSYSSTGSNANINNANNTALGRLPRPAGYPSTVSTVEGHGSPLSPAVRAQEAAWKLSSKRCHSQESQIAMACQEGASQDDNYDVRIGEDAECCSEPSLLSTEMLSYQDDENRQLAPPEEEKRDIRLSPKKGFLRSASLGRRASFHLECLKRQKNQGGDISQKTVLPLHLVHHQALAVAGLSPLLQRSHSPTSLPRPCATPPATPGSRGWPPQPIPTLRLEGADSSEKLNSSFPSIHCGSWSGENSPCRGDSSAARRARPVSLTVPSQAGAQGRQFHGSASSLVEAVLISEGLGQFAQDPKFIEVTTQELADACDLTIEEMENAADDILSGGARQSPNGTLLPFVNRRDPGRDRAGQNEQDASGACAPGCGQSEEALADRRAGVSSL

## COc1ccc2cc1Oc1ccc(cc1)C[C@H]1c3cc(c(OC)cc3CCN1C)Oc1c(OC)c(OC)cc3c1[C@H](C2)N(C)CC3 [TETN, tetrandrine, reference compound]
  L-Activity IC50: 46.80 ± 10.84 µM
